Laboratory results: patent publication US11666567B2, “Bromocriptine formulations” (VeroScience LLC, priority 2012, dated 2023)

Assay: Volume-based particle size distribution of bromocriptine mesylate by laser diffractometry (Sympatec HELOS)
Format: physicochemical
Conditions: Table 13, micronized material used for Example 9 tablets
Excerpt: The parameters Dv10, Dv50, Dv90 and Dv99 represent the particle size at the 10%, 50%, 90% and 99% points of the cumulative volume undersize particle size distribution. Thus, a “Dv10” for a material represents a particle size wherein 10% of the volume of the material consists of particles having a particle size equal to the Dv10 value or smaller. A “Dv50” for a material represents a particle size wherein 50% of the volume of the material consists of particles having a particle size equal to the Dv50 value or smaller. A “Dv90” for a material represents a particle size wherein 90% of the volume of the material consists of particles having a particle size equal to the Dv90 value or smaller. A “Dv99” for a material represents a particle size wherein 99% of the volume of the material consists of particles having a particle size equal to the Dv99 value or smaller.
The particle size distribution ranges defined herein are based upon measurements made using technology and instruments using laser particle size analysis using the instruments and methods developed by [sequence] GmbH, in particular Sympatec HELOS which can provide particle size analysis of dry and wet samples, i.e., of powders, suspensions, emulsions or sprays and is built to the specifications of ISO 13320 “Particle size analysis—laser diffraction methods.”
Finally, the possible role of the particle size of bromocriptine mesylate used in the manufacturing process was investigated. The volume-based particle size distribution for the bromocriptine mesylate used in preparing the tablet batches was measured by laser diffractometry using a Sympatec HELOS Laser Diffractometer.
Bulk batches of bromocriptine mesylate were micronized using a jet mill under a nitrogen atmosphere at a controlled temperature of 0° C. The volume particle size distribution was measured using a Sympatec HELOS H1013 Laser Diffractometer.

CC(C)C[C@H]1C(=O)N2CCC[C@H]2[C@]2(O)O[C@](NC(=O)[C@@H]3C=C4c5cccc6[nH]c(Br)c(c56)C[C@H]4N(C)C3)(C(C)C)C(=O)N12.CS(=O)(=O)O [Micronized Bromocriptine Mesylate]
% < 1 μm: 9% | % < 10 μm: 98% | % < 15 μm: 100%
